# Assay results: patent US4861785A (priority 1985, dated 1989)
# Where a name gives a salt, the structure may show the parent alone.
# System: KCN-induced lethality
# Test: KCN Test in Rats (protection from KCN induced lethality)
# Type: in vivo
# Conditions: Rattus norvegicus, sc; male Wistar rats, subcutaneous, one hour before KCN 5 mg/kg i.v.; survival after 2 minutes; read-out: ED50-values (protecting 50% of the tested animals against KCN-induced lethality)
row,SMILES,ED50
1,"CN(c1nc2ccccc2s1)C1CCN(CC(O)COc2ccc(F)cc2)C1 (stereo not drawn) [Compound 405, 3-[(2-benzothiazolyl)methylamino]-α-[(4-fluorophenoxy)methyl]-1-pyrrolidineethanol 4-methylbenzenesulfonate(1:2)]",10 mg/kg
2,CCCCN1CCC(N(C)c2nc3ccccc3o2)CC1 [Compound 103],5 mg/kg
3,"CN(c1nc2ccccc2s1)C1CCN(CC(O)CSc2ccccc2)CC1 (stereo not drawn) [Compound 440, 4-[(2-benzothiazolyl)methylamino]-α-[(phenylthio)methyl]-1-piperidineethanol (Z)-2-butenedioate(1:1)]",10 mg/kg
4,"CN(c1nc2ccccc2s1)C1CCN(CC(O)COc2ccc(F)cc2)CC1 (stereo not drawn) [Compound 320, 4-[(2-benzothiazolyl)methylamino]-α-[(4-fluorophenoxy)methyl]-1-piperidineethanol monohydrochloride]",1.8 mg/kg
5,CN(c1nc2ccccc2o1)C1CCN(CC(O)COc2ccc(Cl)cc2)CC1 (stereo not shown) [Compound 324],2.5 mg/kg
6,C[C@@H]1CN(CCCCOc2ccccc2)CC[C@@H]1N(C)c1nc2ccccc2s1 (relative stereo) [Compound 75],10 mg/kg
7,"CN(c1nc2ccccc2s1)C1CCN(CCCCOc2cccc(Cl)c2)CC1.O=C(O)/C=C\C(=O)O [Compound 1, N-[1-[4-(3-chlorophenoxy)butyl]-4-piperidinyl]-N-methyl-2-benzothiazolamine (Z)-2-butenedioate (1:1)]",5 mg/kg
8,"Cc1cccc(OCCCN2CCC(N(C)c3nc4ccccc4s3)C2)c1.O=C(O)C(=O)O (stereo not shown) [Compound 120, N-methyl-N-[1-[3-(3-methylphenoxy)propyl]-3-pyrrolidinyl]-2-benzothiazolamine ethanedioate(1:1)]",2.5 mg/kg
9,CN(c1nc2ccccc2o1)C1CCN(CCCCOc2ccc(Cl)cc2)CC1 [Compound 15],0.63 mg/kg
10,CN(c1nc2ccccc2s1)C1CCN(CCCCOc2ccc(F)cc2)CC1 [Compound 11],1.25 mg/kg
11,"CN(c1nc2ccccc2s1)C1CCN(CC(O)CSc2ccc(F)cc2)CC1 (stereo not drawn) [Compound 442, 4-[(2-benzothiazolyl)methylamino]-α-[[(4-fluorophenyl)thio]methyl]-1-piperdineethanol (Z)-2-butenedioate(1:1)]",2.5 mg/kg
12,CN(c1nc2ccccc2s1)C1CCN(CCCCOc2ccccc2)CC1 [Compound 10],5 mg/kg
13,"CN(c1nc2ccccc2o1)C1CCN(CC(O)C2COc3ccccc3O2)CC1 (single isomer, unassigned) [Compound 413, (A)-4-[(2-benzoxazolyl)methylamino]-α-(2,3-dihydro-1,4-benzodioxin-2-yl)-1-piperidineethanol]",5 mg/kg
14,"CN(c1nc2ccccc2s1)C1CCN(CC(O)C2CCc3ccccc3O2)CC1 (stereo not drawn) [Compound 438, (A^-)-4-[(2-benzothiazolyl)methylamino]-α-(3,4-dihydro-2H-1-benzopyran-2-yl)-1-piperidineethanol]",10 mg/kg
15,CN(c1nc2ccccc2o1)C1CCN(CC(O)COc2ccc(F)cc2)CC1 (stereo not shown) [Compound 323],1.25 mg/kg
16,CN(c1nc2ccccc2s1)C1CCN(CCCOc2ccc(F)cc2)CC1 [Compound 146],5 mg/kg
17,COc1ccc(OCCCN2CCC(N(C)c3nc4ccccc4s3)CC2)cc1 [Compound 24],5 mg/kg
18,"CN(c1nc2ccccc2s1)C1CCN(CC(O)CSc2ccc(Cl)cc2)CC1 (stereo not drawn) [Compound 443, 4-[(2-benzothiazolyl)methylamino]-α-[[(4-chlorophenyl)thio]methyl]-1-piperidineethanol (Z)-2-butenedioate(1:1)]",10 mg/kg
19,CN(c1nc2ccccc2s1)C1CCN(CCCOc2ccccc2F)CC1 [Compound 18],5 mg/kg
20,"CN(c1nc2ccccc2o1)C1CCN(CCc2ccccn2)CC1 [Compound 452, N-methyl-N-[1-[2-(2-pyridinyl)ethyl]-4-piperidinyl]-2-benzoxazolamine]",5 mg/kg
21,CN(c1nc2ccccc2s1)C1CCN(CCCCCc2ccccc2)CC1 [Compound 108],5 mg/kg
22,CN(c1nc2ccccc2o1)C1CCN(CCCOc2cccc(F)c2)CC1 [Compound 195],1.25 mg/kg

row,SMILES,ED50
1,CN(c1nc2ccccc2s1)C1CCN(CC=Cc2ccccc2)CC1 [Compound 133],5 mg/kg
2,CN(c1nc2ccccc2s1)C1CCN(CCCCOc2ccc(Br)cc2)CC1 [Compound 42],2.5 mg/kg
3,Cc1cccc(OCCCN2CCC(N(C)c3nc4ccccc4o3)CC2)c1 [Compound 48],1.25 mg/kg
4,"CN(c1nc2ccccc2s1)C1CCN(CCCCOc2ccc(F)cc2)C1 (stereo not shown) [Compound 118, N-[1-[4-(4-fluorophenoxy)butyl]-3-pyrrolidinyl]-N-methyl-2-benzothiazolamine dihydrochloride.monohydrate]",5 mg/kg
5,"CN(c1nc2ccccc2s1)C1CCN(CC(O)C2COc3ccccc3O2)CC1 (single isomer, unassigned) [Compound 415, (A)-4-[(2-benzothiazolyl)methylamino]-α-(2,3-dihydro-1,4-benzodioxin-2-yl)-1-piperidineethanol]",10 mg/kg
6,COc1ccc(OCCCCN2CCC(N(C)c3nc4ccccc4s3)CC2)cc1 [Compound 31],5 mg/kg
7,CN(c1nc2ccccc2s1)C1CCN(CCCOc2ccc([N+](=O)[O-])cc2)CC1 [Compound 151],5 mg/kg
8,CN(c1nc2ccccc2s1)C1CCN(CCCCCOc2cccc(Cl)c2)CC1 [Compound 191],2.5 mg/kg
9,COc1ccccc1OCCCCCN1CCC(N(C)c2nc3ccccc3s2)CC1 [Compound 50],2.5 mg/kg
10,CN(c1nc2ccccc2s1)C1CCN(CCCOc2ccc3ccccc3c2)CC1 [Compound 148],5 mg/kg
11,C(=Cc1ccccc1)CN1CCC(Nc2nc3ccccc3o2)CC1 [Compound 107],2.5 mg/kg
12,CN(c1nc2ccccc2s1)C1CCN(CCCOc2cccc(F)c2)CC1 [Compound 9],2.5 mg/kg
13,"CCN(c1nc2ccccc2s1)C1CCN(CCCOc2ccc(C)cc2)CC1 [Compound 123, N-ethyl-N-[1-[3-(4-methylphenoxy)propyl]-4-piperidinyl]-2-benzothiazolamine]",5 mg/kg
14,"CN(c1nc2ccccc2s1)C1CCN(C[C@H](O)COc2ccc(F)cc2)CC1 [Compound 411, (-)-(S)-4-[(2-benzothiazolyl)methylamino]-α-[(4-fluorophenoxy)methyl]-1-piperidineethanol dihydrochloride]",5 mg/kg
15,"CN(c1nc2ccccc2s1)C1CCN(CCCOc2cccc(F)c2)C1.O=C(O)C(=O)O (stereo not shown) [Compound 121, N-[1-[3-(3-fluorophenoxy)propyl]-3-pyrrolidinyl]-N-methyl-2-benzothiazolamine ethanedioate(1:1)]",2.5 mg/kg
16,"CN(c1nc2ccccc2o1)C1CCN(CC(O)CSc2ccccc2)CC1 (stereo not drawn) [Compound 446, 4-[(2-benzoxazolyl)methylamino]-α-[(phenylthio)methyl]-1-piperidineethanol (E)-2-butenedioate(2:1)]",10 mg/kg
17,CCN(c1nc2ccccc2s1)C1CCN(CC(O)COc2ccc(Cl)cc2)CC1 (stereo not shown) [Compound 357],0.63 mg/kg
18,"CN(c1nc2ccccc2s1)C1CCN(C[C@@H](O)COc2ccc(F)cc2)CC1 [Compound 410, (+)-(R)-4-[(2-benzothiazolyl)methylamino]-α-[(4-fluorophenoxy)methyl]-1-piperidineethanol dihydrochloride]",5 mg/kg
19,CN(c1nc2ccccc2o1)C1CCN(C2CCCCC2)CC1 [Compound 309],5 mg/kg
20,CN(c1nc2ccccc2o1)C1CCN(CC(O)COc2ccccc2)CC1 (stereo not shown) [Compound 322],5 mg/kg
21,CN(c1nc2ccccc2s1)C1CCN(CCCCCOc2ccc(F)cc2)CC1 [Compound 32],5 mg/kg
